From publication PMC2903208 (Organic letters, 2010)

Target: T1, mCD1d (Mus musculus, UniProt P11609)
T1 sequence (P11609 22-305 limits assumed): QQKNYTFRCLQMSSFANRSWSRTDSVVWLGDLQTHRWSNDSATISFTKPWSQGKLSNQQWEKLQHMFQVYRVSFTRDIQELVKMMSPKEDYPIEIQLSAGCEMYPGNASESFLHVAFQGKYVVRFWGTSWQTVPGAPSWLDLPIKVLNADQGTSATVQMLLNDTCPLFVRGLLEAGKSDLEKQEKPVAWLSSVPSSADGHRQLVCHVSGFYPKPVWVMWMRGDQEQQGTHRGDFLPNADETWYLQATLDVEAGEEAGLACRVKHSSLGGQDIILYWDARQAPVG
T1 sequence (P01887 21-119 partner): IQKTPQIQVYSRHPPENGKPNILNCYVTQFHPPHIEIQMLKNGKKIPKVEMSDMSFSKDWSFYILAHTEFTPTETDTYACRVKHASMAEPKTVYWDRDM
Assay: SPR of soluble TCR binding to glycolipid-loaded mCD1d

CCCCCCCCCCCCCCCCCCCCCCCCCC(=O)N[C@@H](CO[C@H]1O[C@H](CO)[C@H](O)[C@H](O)[C@H]1O)[C@H](O)[C@H](O)CCCCCCCCCCCCCC [compound 1, α-GalCer]
Kd: 12.8 nM
